In US20110105544A1, “CARBOXYLIC DERIVATIVES FOR USE IN THE TREATMENT OF CANCER” (priority 2007, published 2011):
Where a name gives a salt, the structure may show the parent alone.

Experiments:
[1] = test system: human colon cancer cell line HCT116; assay: alamarBlue viability assay, HCT116; assay type: cell-based; conditions: HCT-116, 72 hours, dose required to inhibit cell growth by 50%
Method: (§1) The human colon cancer cell line HCT116 and the human breast cancer cell line MCF-7 were from the American Type Culture Collection (ATCC; CCL-247 and HTB-22, respectively).
(§2) The HCT116 cell line was maintained in DMEM GlutaMAX (Invitrogen) supplemented with 10% fetal calf serum and the MCF7 cell line was maintained in RPMI1640 GlutaMAX (Invitrogen) containing 1 mM sodium piruvate and 10% fetal calf serum.
(§3) Cells were grown in a humidified incubator at 37° C. in 5% CO2.
(§4) Cells were plated in 96-well plates at a density of 6000 cells/well in 100 μl medium 24 h before addition of drugs. […] To do so, a drugs-dilution plate at twice the screening concentrations was prepared. 72 hours later, alamarBlue (Biosource, Invitrogen) viability assay was performed following manufacturer's protocol. In brief, alamarBlue diluted in media was added to cells to have a 5% solution. Cells were incubated at 37° C., 3 hours and at room temperature, 30 min. Cells with no drug and, cells with no drug and lysed with triton X-100 were used as controls. Fluorescence was monitored at 530 nm excitation and 590 nm emission wavelengths. Results were quantified using Infinite F200 Microplate Reader (Tecan Group, Ltd.). EC50 were calculated as the dose of drugs required to inhibit cell growth by 50%, with Origin 7.0 computer program.

[2] = test system: human breast cancer cell line MCF-7; assay: alamarBlue viability assay, MCF-7; assay type: cell-based; conditions: MCF7, 72 hours, dose required to inhibit cell growth by 50%
Method: as §1, §2, §3, §4

human recombinant HDAC 8 = target: T1, human recombinant HDAC 8 (Homo sapiens, UniProt Q9BY41); assay: HDAC inhibition assay (Fluor de Lys), HDAC8; assay type: biochemical; conditions: inhibitor-protein incubation 0 hours, reaction 3 hours, 37° C.
T1 construct: purchased BPS Bioscience 50008
T1 sequence (Q9BY41 1-377): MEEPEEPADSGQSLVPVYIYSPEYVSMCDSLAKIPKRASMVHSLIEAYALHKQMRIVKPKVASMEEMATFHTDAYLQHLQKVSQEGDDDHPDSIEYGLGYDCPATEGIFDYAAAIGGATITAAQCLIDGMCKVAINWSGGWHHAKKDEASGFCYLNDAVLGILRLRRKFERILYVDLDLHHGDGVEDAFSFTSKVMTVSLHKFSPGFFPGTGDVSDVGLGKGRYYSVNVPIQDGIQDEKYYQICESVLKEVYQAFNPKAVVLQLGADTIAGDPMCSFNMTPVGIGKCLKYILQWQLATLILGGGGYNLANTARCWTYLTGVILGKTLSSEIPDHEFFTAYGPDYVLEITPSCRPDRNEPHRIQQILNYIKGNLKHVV
Method: (§5) All assays were carried out in the assay buffer: 50 mM Tris/Cl, pH 8.0, 137 mM NaCl, 2.7 mM KCl, 1 mM MgCl2).
(§6) Reactions were carried out in a 96-wells microplate (Corning 96 well Flat Bottom Non-binding surface (black) ref. 3651).
(§7) Potential inhibitors were added after five fold serial dilutions in DMSO. Final DMSO concentration in the assay microplate was kept at 2%.
(§8) Afterwards, human recombinant HDAC1, HDAC 2 or HDAC 8 were added up to […] respectively in assay buffer. When necessary, the mixture was incubated at room temperature prior the addition of substrate.
(§9) Total reaction volume of 50 μl. Human recombinant HDACs could be acquired from commercial sources (HDAC1: ref. #50001, BPS Bioscience™; HDAC 2: ref. #50002, BPS Bioscience™; HDAC 8: ref. #50008, BPS Bioscience™).
(§10) Reactions were stopped with 50 μl Developer (KI-105 Fluor de Lys™, BIOMOL®) with 2 μmol/L trichostatin A (TSA, final concentration 1 μmol/L). After 20 minutes at 37° C., fluorescence (excitation 360 nm, emission 460 nm) was measured using an Infinite F200 fluorimeter (Tecan). Background was determined in reactions using substrate in the absence of enzyme.
(§11) IC50 values are defined as the compound concentration at which the deacetylase activity is 50% inhibited. In these assays the following grading was used (I: IC50≦10 μM; II: 10 μM<IC50≦100 μM; III: 100 μM<IC50≦1 mM) The results obtained are summarized in Table 4.

human recombinant HDAC 2 = target: T2, human recombinant HDAC 2 (Homo sapiens, UniProt Q92769); assay: HDAC inhibition assay (Fluor de Lys), HDAC2; assay type: biochemical; conditions: inhibitor-protein incubation 2 hours, reaction 1 h 30 min, 37° C.
T2 construct: purchased BPS Bioscience 50002
T2 sequence (Q92769 whole entry): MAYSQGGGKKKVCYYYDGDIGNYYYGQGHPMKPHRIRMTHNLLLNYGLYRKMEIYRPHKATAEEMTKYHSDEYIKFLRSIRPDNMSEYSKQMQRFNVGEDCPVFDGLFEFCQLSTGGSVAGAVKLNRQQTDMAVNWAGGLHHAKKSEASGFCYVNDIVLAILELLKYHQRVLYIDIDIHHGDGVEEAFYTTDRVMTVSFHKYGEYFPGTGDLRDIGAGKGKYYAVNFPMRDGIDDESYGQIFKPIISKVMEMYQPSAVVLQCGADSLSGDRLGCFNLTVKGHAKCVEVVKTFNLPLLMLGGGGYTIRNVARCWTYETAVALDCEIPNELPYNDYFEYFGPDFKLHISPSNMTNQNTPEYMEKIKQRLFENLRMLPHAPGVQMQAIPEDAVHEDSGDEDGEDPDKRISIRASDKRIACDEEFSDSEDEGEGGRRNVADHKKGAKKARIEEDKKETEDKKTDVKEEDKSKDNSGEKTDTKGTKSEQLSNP
Method: as §5, §6, §7, §8, §9, §10, §11

MDA-MB-435P (breast) = assay: alamarBlue viability assay, MDA-MB-435P; assay type: cell-based; conditions: 72 hours
Method: (§12) Additionally, the following cancer cell lines were used:
as §3
(§13) Cells were plated in 96-well plates at a density of 6000 cells/well in 100 μl medium 24 h before addition of drugs. They were then added in concentrations from 100 μM to 0.45 nM (each concentration in triplicate). To do so, a drugs-dilution plate at twice the screening concentrations was prepared. 72 hours later, alamarBlue (Biosource, Invitrogen) viability assay was performed following manufacturer's protocol. In brief, alamarBlue diluted in media was added to cells to have a 5% solution. Cells were incubated at 37° C., 3 hours and at room temperature, 30 min. Cells with no drug and, cells with no drug and lysed with triton X-100 were used as controls. Fluorescence was monitored at 530 nm excitation and 590 nm emission wavelengths. Results were quantified using Infinite F200 Microplate Reader (Tecan Group, Ltd.). EC50 were calculated as the dose of drugs required to inhibit cell growth by 50%, with Origin 7.0 computer program.

MDA-MB-468 (breast) = assay: alamarBlue viability assay, MDA-MB-468; assay type: cell-based; conditions: Homo sapiens, 72 hours
Method: as §12, §3, §13

PC3 (prostate) = assay: alamarBlue viability assay, PC3; assay type: cell-based; conditions: 72 hours
Method: as §12, §3, §4

Hep3B (hepatocarcinoma) = assay: alamarBlue viability assay, Hep3B; assay type: cell-based; conditions: Homo sapiens, 72 hours
Method: as §12, §3, §4

Structure (SMILES) | EC50 [1] | EC50 [2] | IC50 (human recombinant HDAC 8) | IC50 (human recombinant HDAC 2) | EC50 (MDA-MB-435P (breast)) | EC50 (MDA-MB-468 (breast)) | EC50 (PC3 (prostate)) | EC50 (Hep3B (hepatocarcinoma))
COC(=O)C(C)CCc1ccccc1 (stereo not shown) [Example 2, methyl 2-methyl-4-phenylbutanoate] | 238 µM | 696 µM |  |  |  |  |  | 
CC(CCc1ccccc1)C(=O)O (stereo not shown) [Example 3, 2-Methyl-4-phenylbutanoic acid] | 4510 µM | > 5000 µM | 100 to 1000 µM |  |  |  |  | 
CCC(CCc1ccccc1)C(=O)OC (stereo not shown) [Example 4, Methyl 2-ethyl-4-phenylbutanoate] | 105 µM | 354 µM |  |  |  |  |  | 
CCC(CCc1ccccc1)C(=O)O (stereo not shown) [Example 5, 2-Ethyl-4-phenylbutanoic acid] | 2420 µM | 1420 µM |  |  |  |  |  | 
CCCC(CCc1ccccc1)C(=O)O (stereo not shown) [Example 7, 2-(2-Phenylethyl)pentanoic acid] | 680 µM | 1850 µM | 10 to 100 µM | 100 to 1000 µM |  |  |  | 
COC(=O)C(CCc1ccccc1)Cc1ccccc1 (stereo not shown) [Example 8, Methyl 2-benzyl-4-phenylbutanoate] |  | 5000 µM |  |  |  |  |  | 
CNS(=O)(=O)c1ccc(CCCC(CCc2ccccc2)C(=O)O)cc1 (stereo not shown) [Example 13, 5-(4-[(Methylamino)sulfonyl]phenyl)-2-(2-phenylethyl)pentanoic acid] | 2400 µM | 1800 µM | 100 to 1000 µM |  |  |  |  | 
CNS(=O)(=O)c1cccc(CCCC(CCc2ccccc2)C(=O)OCOC(C)=O)c1 (stereo not shown) [Example 19, (Acetyloxy)methyl 5-(3-[(methylamino)sulfonyl]phenyl)-2-(2-phenylethyl)pentanoate] | 65 µM |  |  |  | 6.7 µM | 13 µM |  | 
O=C(O)C(C/C=C/c1ccccc1)CCc1ccccc1 (stereo not shown) [Example 21, (4E)-5-Phenyl-2-(2-phenylethyl)pent-4-enoic acid] | 204 µM |  | 10 to 100 µM | 100 to 1000 µM |  |  |  | 
O=C(O)C(CCCc1ccc2ccccc2c1)CCc1ccccc1 (stereo not shown) [Example 22, 5-(2-Naphthyl)-2-(2-phenylethyl)pentanoic acid] | 96.5 µM |  | 10 to 100 µM | 100 to 1000 µM |  |  |  | 
O=C(O)C(CCCc1cccc2ccccc12)CCc1ccccc1 (stereo not shown) [Example 23, 5-(1-Naphthyl)-2-(2-phenylethyl)pentanoic acid] | 67 µM |  | 10 to 100 µM | 10 to 100 µM |  |  |  | 
CN(C)c1ccc(C(=O)Nc2cccc(CCCC(CCc3ccccc3)C(=O)O)c2)cc1 (stereo not shown) [Example 24, 5-[3-{[4-(dimethylamino)benzoyl]amino}phenyl]-2-(2-phenylethyl)pentanoic acid hydrochloride] | 75 µM |  | ≤ 10 µM | 10 to 100 µM |  |  |  | 
CNS(=O)(=O)c1ccc(CCCC(CCc2ccccc2)C(=O)O)s1 (stereo not shown) [Example 26, 5-{5-[(Methylamino)sulfonyl]thien-2-yl}-2-(2-phenylethyl)pentanoic acid] | 1700 µM |  | 100 to 1000 µM |  |  |  |  | 
O=C(O)C(CCCc1cccc(S(=O)(=O)NCc2ccccc2)c1)CCc1ccccc1 (stereo not shown) [Example 27, 5-(3-[(Benzylamino)sulfonyl]phenyl)-2-(2-phenylethyl)pentanoic acid] | 140 µM |  | 10 to 100 µM | 10 to 100 µM |  |  |  | 
O=C(O)C(CCCc1ccccc1)CCc1ccccn1 (stereo not shown) [Example 28, 5-Phenyl-2-(2-pyridin-2-ylethyl)pentanoic acid] | 312 µM |  | 100 to 1000 µM |  |  |  |  | 
COc1cccc(CCC(CCCc2ccccc2)C(=O)O)c1 (stereo not shown) [Example 29, 2-[2-(3-methoxyphenyl)ethyl]-5-phenylpentanoic acid] | 166 µM |  | 10 to 100 µM | 100 to 1000 µM |  |  |  | 
O=C(O)C(CCCc1ccccc1)CCc1cccc(O)c1 (stereo not shown) [Example 30, 2-[2-(3-Hydroxyphenyl)ethyl]-5-phenylpentanoic acid] | 58.2 µM |  | 100 to 1000 µM |  |  |  |  | 
CC(=O)Nc1ccc(CCC(CCCc2ccccc2)C(=O)O)cc1 (stereo not shown) [Example 31, 2-{2-[4-(Acetylamino)phenyl]ethyl}-5-phenylpentanoic acid] |  |  | 10 to 100 µM | 100 to 1000 µM |  |  |  | 
CCCC(CCCc1ccccc1)C(=O)O (stereo not shown) [Example 35, 5-Phenyl-2-propylpentanoic acid] | 1300 µM |  | 10 to 100 µM | 100 to 1000 µM |  |  |  | 
Cc1ccc(NS(=O)(=O)c2cccc(C#CCC(CCc3ccccc3)C(=O)O)c2)cc1 (stereo not shown) [Example 38, 5-[3-(4-Methylanilinosulfonyl)phenyl]-2-(2-phenylethyl)pent-4-ynoic acid] | 121 µM |  | 10 to 100 µM | 100 to 1000 µM |  |  |  | 
O=C(O)C(CCCc1cccc(S(=O)(=O)Nc2ccccc2)c1)CCc1ccccc1 (stereo not shown) [Example 39] | 1200 µM |  | 100 to 1000 µM |  |  |  |  | 
O=C(O)C(CCCc1ccc(S(=O)(=O)Nc2ccccc2)cc1)CCc1ccccc1 (stereo not shown) [Example 40, 5-(4-[Anilinosulfonyl]phenyl)-2-(2-phenylethyl)pentanoic acid] | 44.8 µM |  | 10 to 100 µM | 10 to 100 µM |  |  |  | 
CCc1ccc(CCC(CCCc2ccccc2)C(=O)O)cc1 (stereo not shown) [Example 45, 2-[2-(4-Ethylphenyl)ethyl]-5-phenylpentanoic acid] | 165 µM |  | ≤ 10 µM | 10 to 100 µM |  |  |  | 
CCc1ccc(CCC(CCCc2cccc(NC(=O)c3ccc(N(C)C)cc3)c2)C(=O)O)cc1 (stereo not shown) [Example 49, 5-(3-{[4-(Dimethylamino)benzoyl]amino}phenyl)-2-[2-(4-ethylphenyl)ethyl]pentanoic acid] | 140 µM |  | ≤ 10 µM | 100 to 1000 µM |  |  |  | 
O=C(O)C(CCCc1ccccc1)CCc1ccc(OCc2ccccc2)cc1 (stereo not shown) [Example 55, 2-[2-(4-Benzyloxyphenyl)ethyl]-5-phenylpentanoic acid] | 23 µM |  | ≤ 10 µM | 10 to 100 µM | 16 µM | 43 µM | 102 µM | 418 µM
COc1ccc(CCC(CCCc2ccccc2)C(=O)O)cc1 (stereo not shown) [Example 57, 2-[2-(4-Methoxyphenyl)ethyl]-5-phenylpentanoic acid] | 242 µM |  | 10 to 100 µM | 100 to 1000 µM |  |  |  | 
O=C(O)C(CCCc1ccccc1)OCc1ccccc1 (stereo not shown) [Example 69, 2-(Benzyloxy)-5-phenylpentanoic acid] | 965 µM |  | 10 to 100 µM | 100 to 1000 µM |  |  |  | 
O=C(O)C(CCCc1ccccc1)CCc1ccc(-c2cccnc2)cc1 (stereo not shown) [Example 77, 2-[2-(4-Pyridin-3′-ylphenyl)ethyl]-5-phenylpentanoic acid] | 90 µM |  | ≤ 10 µM | 10 to 100 µM |  |  |  | 
